# Biological target: T1, phospholipid hydroperoxide glutathione peroxidase (PHGPx) (Rattus norvegicus, UniProt P36970)
# T1 construct: from tissue; host or cells: Wistar rat: cells from seminiferous tubules of the testis, epididymal spermatozoa, sperm mitochondrial capsule
# T1 sequence (P36970 3-170 isoform P36970-2 limits assumed): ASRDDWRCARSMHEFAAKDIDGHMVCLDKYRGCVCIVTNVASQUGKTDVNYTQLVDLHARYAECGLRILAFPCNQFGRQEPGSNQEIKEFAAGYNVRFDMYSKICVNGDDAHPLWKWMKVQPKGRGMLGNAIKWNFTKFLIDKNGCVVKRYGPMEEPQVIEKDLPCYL
# Assay: PHGPx activity after solubilisation/reduction with thiols (phosphatidylcholine hydroperoxide substrate)
# Assay type: biochemical
# Conditions: for PHGPx activity: 6M guanidine-HCl, pH 7.5, 4° C., 10 min
# Procedure: In fact, the specific activities thus obtained from mitochondrial capsules exceed, by a factor of 20, the highest values ever measured, i.e. in spermatogenic cells. Nevertheless, this extreme PHGPx activity is still low compared to its content in PHGPx protein.
# Spermatozoa of four month old Wistar rats (about 300 grams of body weight) were collected by squeezing cauda epididymis and vas deferens in phosphate buffer saline (PBS) and by centrifugating at 600×g for 10 minutes. Cell and sperm pellets were layered on a discontinous 45%, 70% and 95% Percoll gradient and centrifugated at 300×g for 20 min. Spermatogenic cells stacked on top of the gradient, while spermatozoa separated into the 70% Percoll layer. Cells from seminiferous epithelium were prepared as follows (26): testes were deprived of albuginea, seminiferous tubules were cut into small pieces in PBS containing 0.250 mg/ml collagenase, and incubated twice 25° C. for 15 min. Cells then were filtered through a stainless steel screen (140 μm pore), washed in PBS and centrifugated at 300×g for 10 min. Sperm mitochondrial capsule was prepared according to Calvin et al. (1): sperms were resuspended in 0.05 M Tris-HCl pH 8.0 at the concentration of 10^6 cells/ml and treated with trypsin (0.2 mg/ml) for 10 minutes. After stopping the protease action with trypsin inhibitor (0.5 mg/ml) and SDS (10 mg/ml) sperms were centrifugated at 1,500×g for 10 minutes. Pellets were resuspended in 0.05 M Tris-HCl, pH 8.5 containing 1% sodium dodecyl sulphate (SDS), and 0.2 mM DTT and kept under continuous stirring for 30 minutes. Following centrifugation at 4,500×g for 15 min, the resulting supernatant was layered on a 1.6 M sucrose cushion. After centrifugation for 20 min at 18,000×g in a swinging rotor, sperm capsules were collected as a band at the top of the sucrose cushion, washed in Tris-HCl, pH 8.0 and spun at 140,000×g.
# When applicable, PHGPx was also identified by activity measurement according to (28) using the specific substrate phosphatidylcholine hydroperoxide.
# [1] = 0.1 M thiol in the presence of guanidine, measured after elimination of denaturating and reducing agents
SMILES,Reactivation of latent PHGPx of sperm mitochondrial capsule / mature spermatozoa [1],"PHGPx activity (Cells from seminiferous tubules, 5 mM 2-mercaptoethanol, mean and S.D. of five)","PHGPx activity (Cells from seminiferous tubules, 100 mM 2-mercaptoethanol, mean and S.D. of five)","PHGPx activity (Mitochondrial capsule, 5 mM 2-mercaptoethanol)","PHGPx activity (Mitochondrial capsule, 100 mM 2-mercaptoethanol, mean and S.D. of five)","PHGPx activity (Spermatozoa from tail of epididymis, 5 mM 2-mercaptoethanol)","PHGPx activity (Spermatozoa from tail of epididymis, 100 mM 2-mercaptoethanol, mean and S.D. of five)","Reactivation of latent PHGPx of sperm mitochondrial capsule / mature spermatozoa (glutathione in the low millimolar range, conventional test conditions)"
O[C@H](CS)[C@H](O)CS (racemic) [dithiothreitol],regenerate a significant PHGPx activity,,,,,,,
OCCS [2-mercaptoethanol],regenerate a significant PHGPx activity,250 ± 10 mU/mg protein,260 ± 10 mU/mg protein,undetectable,"5,600 ± 290 mU/mg protein",undetectable,"3,140 ± 200 mU/mg protein",
N[C@@H](CCC(=O)N[C@@H](CS)C(=O)NCC(=O)O)C(=O)O [glutathione],,,,,,,,neither reactivated

# Reference: patent publication US6884601B1, “Method to detect fertilization potential of sperm” (priority 1999, dated 2005)
